Results as given in patent US20240325544A1, “CATIONIC LIPID FOR COVALENT MODIFICATION OF PEPTIDES” (PharmalN Corporation, priority 2023, published 2024).
Marks after values point to notes of the source that are not given here. Blank lines part the entries; values can stand above or below the compound they belong to. Numbered stars: 1 amine (or outer) side, 2 acyl side, 3 side chain; on linkers, the order of the positions; unused ones are H or OH. Bridge positions count the residues as written; N and C are the ends. Square brackets hold non-standard residues; d marks the D form. Peptide text beside a SMILES is read from it. * marks the point of attachment. γGlu = O=C(O)[C@H](CCC(=O)[*:2])N[*:1]; Palmitoyl = CCCCCCCCCCCCCCCC(=O)*; Dab = NCC[C@H](N)C(=O)O; Dap = NC[C@H](N)C(=O)O; AEEA = NCCOCCOCC(=O)O

What was measured:
Sprague Dawley rats [1] = experiment: Dose-range finding of cationic alkyl modified CNP, subcutaneous bolus in rats (Table 2)
Procedure: Animal care and treatment: Male Sprague Dawley rats aged 8 to 10 weeks (Charles River, Hollister, CA) were housed in groups of two (n=3/group) in disposable polypropylene cages with rodent cob bedding at the PharmaIN animal facility. Animals had ad libitum access to food (LabDiet Pico Rodent #5053; Animal Specialties, Woodburn, OR) and water. Temperature (68-74° F.) and humidity (30-60%) were maintained within a controlled range, and a 12-hour light/dark cycle was used. […] Animals were monitored closely during the first 4 hours following injection, then hourly throughout the rest of the day for any signs of swelling or discoloration (dilatory side effect), lethargy (side effect), ataxia (ataxia is used as a marker of toxicity). Rats were allowed a 1-week wash-out period between bolus doses. Following final observations, animals were humanely euthanized through CO2 asphyxiation.

cGMP = experiment: Plasma cGMP after SC bolus of natriuretic peptides in CD-1 mice (pharmacodynamics, Table 3); type: in vivo; details: SC bolus 1.0 mg/kg (≤0.45 μmol/kg), baseline 10 +/−8 pmol/ml, n = 3-5
In short: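 Peptides given SC in sterile water; retro-orbital blood at 2 and 6 h post-dose (two bleeds per mouse), K2EDTA plasma. Plasma cGMP by commercial immunoassay kit; ANP, BNP or CNP plasma levels by peptide-specific ELISA.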

[2] = test system: E0771 breast cancer cells; experiment: Orthotopic mouse model of breast cancer using E0771 cells (FIG. 6); type: in vivo, mice; details: 0.3 mg/kg (0.1 μmol/kg) SC once daily, 5 days on, 2 days off, 3 cycles
Procedure: Error bars represent standard error of the mean. FIG. 6A) Tumor growth kinetics of 6-week-old female C57BL/6J mice (n=10 per group) that were inoculated with E0771 breast cancer cells (250,000 cells/mouse) in the mammary gland. Starting from Day 4 post-inoculation, cationic alkyl modified CNP derivatives (SEQ ID NO: 29, 30, and 31) were administered subcutaneously at a bolus dose of 0.3 mg/kg (0.1 μmol/kg) once daily for 5 days (5 days on, 2 days off) for 3 cycles; dose days indicated by gridlines. The control group, which received only buffer, was dosed in the same manner to establish the baseline tumor growth kinetics. […] Therefore, it can be concluded that the attachment of CNP is important for the observed anti-tumor activity. Statistical analysis was based on Dunnett's test performed by using GraphPad (n=10, 10, 10, and 10; Control, SEQ ID NO: 29, SEQ ID NO: 30, and SEQ ID NO: 31) **** P<0.0001 vs Control group.
Therefore, it can be concluded that the attachment of CNP is essential for anti-tumor activity. […] Animal care and treatment: Female C57BL/6J mice (6 weeks-old) were purchased from Kyudo (Saga, Japan) and maintained under a 12-hour light/12-hour dark cycle with free access to water and standard mouse diet (MF diet, Oriental Yeast Co., Ltd. Tokyo, Japan or PicoLab Rodent Diet 20, LabDiet Corp., St. Louis, Missouri). Implantation and drug administration: Mice were implanted with E0771 breast cancer cells (250,000 cells/mouse; Cosmo Bio Tokyo, Japan) in their left mammary gland and were randomized into groups of n=10. Starting from Day 4 post-inoculation, cationic alkyl modified CNP derivatives (SEQ ID NOs: 29, 30, and 31) were administered subcutaneously at a bolus dose of 0.3 mg/kg (0.1 μmol/kg; with a dose volume of 10 mL/kg) in sterile water for injection (Otsuka Pharmaceutical, Tokushima, Japan) once daily for 5 days (5 days on, 2 days off) for 3 cycles. The control group, which received only buffer, was dosed in the same manner to establish the baseline tumor growth kinetics. Tumor sizes were measured using calipers. Statistical analysis was based on Dunnett's test performed by using GraphPad (n=10, 10, 10, and 10; Control, SEQ ID NO: 29, SEQ ID NO: 30, and SEQ ID NO: 31) **** P<0.0001 vs Control group.

[3] = Plasma concentration of respective natriuretic peptide by ELISA after SC bolus in CD-1 mice (pharmacokinetics, Table 3); details: male, CD-1, mouse, in vivo, sc, 1 mg/kg
Procedure: The test articles were formulated or dissolved in sterile water for injection on the same day of administration. […] Blood samples were collected via retro-orbital bleed at 2- and 6-hours post-injection, with two bleedings per animal at two different timepoints. The samples were collected in K2EDTA tubes, processed by centrifugation (2000×g; 15 m 4 eC within 30 minutes after collection), and the resulting plasma samples were stored at −80° C. Biochemical analysis: The plasma concentration of the respective natriuretic peptide was analyzed using commercially available ELISA kits from Phoenix Pharmaceuticals (Burlingame, CA): ANP ELISA (cat #EKE-005-06), BNP ELISA (cat #EKE-011-03), and CNP ELISA (cat #EKE-012-03). […] Plasma cGMP was analyzed using a commercially available kit from Abcam (ab133052, Waltham, MA).

[4] = test system: inflammatory cytokines (MCP1, IL-6, TNFα) in BALF; experiment: LPS ALI model: inflammatory cytokines in BALF by ELISA (Table 4); type: in vivo, mice; details: LPS 0.05 mg/kg IT; SEQ 0.3 mg/kg SC, Sivelestat 150 mg/kg IP; 24 hours
Procedure: Animal care and treatment: Male C57BL/6J mice (6 weeks-old) were purchased from Kyudo (Saga, Japan) and maintained under a 12-hour light/12-hour dark cycle with free access to water and standard mouse diet (MF diet, Oriental Yeast Co., Ltd. Tokyo, Japan). Drug administration: Mice were administered LPS (0.05 mg/kg IT; Sigma-Aldrich) followed by treatment with various test articles, including Sivelestat (150 mg/kg; Nipro, Osaka, Japan), an inhibitor of human neutrophil elastase, injected IP as a positive control, and cationic alkyl modified CNPs (SEQ ID NO: 31, 29, and 30; 0.3 mg/kg (0.1 μmol/kg) SC). The test articles were administered immediately after LPS injection. Additionally, a normal control (NC) group without LPS administration and a Control group receiving only LPS without any test article were included. After 24 hours, the mice were euthanized under isoflurane anesthesia and BALF was harvested. Biochemical analysis: ALI and ARDS are often characterized by increased levels of inflammatory cytokines, including Macrophage Chemoattractant Protein-1 (MCP1), Interleukin-6 (IL-6), and […] (TNFα), in BALF. Decreases in their concentration can indicate the resolution of ALI/ARDS. Concentration of each cytokine (MCP1, IL-6, and TNFα) was measured using an ELISA kit (R&D SYSTEMS, Minneapolis M N). […] Statistical analysis was based on Dunnett's test performed by using GraphPad. (n=5, 8, 8, 8, and 8; NC, Control, PC, SEQ ID NO: 31, SEQ ID NO: 29). *** P<0.001, ** P<0.01, * P<0.05 vs each corresponding Control group.

Sprague Dawley rats [5] = experiment: Clinically observable adverse effects of cationic alkyl moieties after subcutaneous bolus in rats (Table 1); type: in vivo, rat; details: tested at 3.0, 5.0 or 10 μmol/kg; for Ataxia** in n = 3: ataxia is bolus dose limiting toxicity; for Swelling and/or Discoloration in n = 3: dose at which sign was seen
Procedure: (§1) Drug administration and observation: Each rat received a subcutaneous injection of a cationic alkyl modifier (SEQ ID NO: 1-22; listed in Table 1 below) in a buffer of sterile water adjusted to a pH between 4.5-5, with an initial bolus dose of 5.0 μmol/kg and an injection volume of 1.0 mL/kg. The bolus dose level was adjusted based on observations, and animals were monitored closely for lethargy, ataxia, swelling, or discoloration during the first 4 hours post-injection and hourly thereafter. As used herein, “ataxia” means a clinical sign observed as poor muscle control that causes clumsy voluntary movements. It may cause difficulty with mobility, coordination, and eye movements. As used herein, “lethargy” means a clinical sign observed as inability or unwillingness to resume normal activity characterized by exploring and alertness. Lethargic rats are easily observed by displaying little to no activity and/or unwillingness to explore around, half closed eyes, and hunched posture. As used herein, “swelling” means a clinical sign observed as the enlargement or engorgement of body parts with blood or fluid and is associated with visible redness (discoloration). If no swelling occurred, dose level was increased to 10 μmol/kg; if swelling was present, bolus dose level was decreased to 3.0 μmol/kg. A wash-out period of 1 week was allowed between bolus doses, and animals were humanely euthanized through CO2 asphyxiation after final observation.

[6] = as above; type: in vivo, rat; details: male, Sprague-Dawley, rat, in vivo, sc, tested at 3.0, 5.0 or 10 μmol/kg, lethargy is considered maximum tolerated bolus dose, read-out: Lethargy* in n = 3
Procedure: as §1

Lethargy* in n = 3 (Sprague Dawley rats [1]; up to 10 mg/kg): ≥10 mg/kg | Swelling and/or Discoloration in n = 3 (Sprague Dawley rats [1]; up to 10 mg/kg): >10 mg/kg | Lethargy* in n = 3 (Sprague Dawley rats [1]; value in parentheses): (3.3) μmol/kg | Swelling and/or Discoloration in n = 3 (Sprague Dawley rats [1]; value in parentheses): (3.3) μmol/kg | level at 2 h [3]: 12.6 ng/mL | level at 6 h [3]: 1.9 ng/mL
Compound: CCCCCCCCCCCCCCCC(=O)N[C@@H](Cc1ccc(O)cc1)C(=O)N[C@@H](CCC(=O)O)C(=O)NCCOCCOCC(=O)NCCOCCOCC(=O)N[C@@H](CCN)C(=O)N[C@@H](CCN)C(=O)NCC(=O)N[C@@H](CC(C)C)C(=O)N[C@@H](CO)C(=O)N[C@@H](CCCCN)C(=O)NCC(=O)N[C@H]1CSSC[C@@H](C(=O)O)NC(=O)CNC(=O)[C@H](CC(C)C)NC(=O)CNC(=O)[C@H](CO)NC(=O)[C@H](CCC(N)=O)NC(=O)[C@H](CO)NC(=O)CNC(=O)[C@H]([C@@H](C)CC)NC(=O)[C@H](CCCNC(=N)N)NC(=O)[C@H](CC(=O)O)NC(=O)[C@H](CC(C)C)NC(=O)[C@H](CCCCN)NC(=O)[C@H](CC(C)C)NC(=O)CNC(=O)[C@H](Cc2ccccc2)NC1=O [SEQ ID NO: 30] (Palmitoyl-YE[AEEA][AEEA][Dab][Dab]GLSKGCFGLKLDRIGSQSGLGC-OH; disulfide 12-28; C-terminus assumed)
Ataxia** in n = 3 (Sprague Dawley rats [1]; up to 10 mg/kg): >10 mg/kg | Ataxia** in n = 3 (Sprague Dawley rats [1]; value in parentheses): (3.3) μmol/kg | Plasma concentration of cGMP, 2 hr (cGMP; 2 hr): 217.30** pmol/mL | Plasma concentration of cGMP, 6 hr (cGMP; 6 hr): 83.85* pmol/mL | Tumor volume compared to the Control group [2]: significant decrease in tumor volume

Compound: CC(C)(C)C(=O)Oc1ccc(S(=O)(=O)Nc2ccccc2C(=O)NCC(=O)O)cc1 [Sivelestat, reference compound]
IL-6 in BALF [4]: 69 % Of Control | MCP1 in BALF [4]: 63 % Of Control | TNFα in BALF [4]: 63 % Of Control

Compound: CCCCCCCCCCCCCCCC(=O)NCCOCCOCC(=O)NCCOCCOCC(=O)NCCOCCOCC(=O)N[C@@H](CN)C(=O)N[C@@H](CN)C(=O)O [SEQ ID NO: 14, CH3(CH2)14(C═O)-Aeea-Aeea-Aeea-Dap-Dap] ({Palmitoyl-AEEA-AEEA-AEEA}-[Dap]-[Dap]-OH; C-terminus assumed)
Tumor volume compared to the Control group [2]: did not show a significant reduction in tumor volume | Ataxia** in n = 3 (Sprague Dawley rats [5]): >10 µmol/kg | Swelling and/or Discoloration in n = 3 (Sprague Dawley rats [5]): >10 µmol/kg | MTD [6]: > 10 µmol/kg

Compound: CCCCCCCCCCCCCCCC(=O)N[C@@H](CCC(=O)NCCOCCOCC(=O)NCCOCCOCC(=O)N[C@@H](CCN)C(=O)N[C@@H](CCN)C(=O)O)C(=O)O [SEQ ID NO: 15, CH3(CH2)14(C═O)-γE-Aeea-Aeea-Dab-Dab] ({Palmitoyl-γGlu-AEEA-AEEA}-[Dab]-[Dab]-OH; C-terminus assumed)
Ataxia** in n = 3 (Sprague Dawley rats [5]): >10 µmol/kg | Swelling and/or Discoloration in n = 3 (Sprague Dawley rats [5]): >10 µmol/kg | MTD [6]: > 10 µmol/kg
